According to PubChem BioAssay (NCI):
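Following 48 hours of exposure in 96-well plates, responses at five concentrations were used to interpolate endpoints linearly. Abbreviation: GI50, concentration required for 50% inhibition of growth. TGI marks complete inhibition of growth.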

How the values were obtained:
Experiment in all cases: NCI tumour cell line growth inhibition, 48 h
NCI-H460 lung = tested on: NCI-H460 lung
HOP-62 NSCLC = tested on: HOP-62 NSCLC
LOX IMVI melanoma = tested on: LOX IMVI melanoma
CCRF-CEM leukemia = tested on: CCRF-CEM leukemia
HL-60(TB) leukemia = tested on: HL-60(TB) leukemia
PC-3 prostate = tested on: PC-3 prostate
SW-620 colon = tested on: SW-620 colon
SK-MEL-28 melanoma = tested on: SK-MEL-28 melanoma
MOLT-4 leukemia = tested on: MOLT-4 leukemia
SF-539 CNS = tested on: SF-539 CNS

| Structure (SMILES) | GI50 (NCI-H460 lung) [µM] | TGI (NCI-H460 lung) [µM] | GI50 (HOP-62 NSCLC) [µM] | TGI (HOP-62 NSCLC) [µM] | GI50 (LOX IMVI melanoma) [µM] | TGI (LOX IMVI melanoma) [µM] | GI50 (CCRF-CEM leukemia) [µM] | TGI (CCRF-CEM leukemia) [µM] | GI50 (HL-60(TB) leukemia) [µM] | TGI (HL-60(TB) leukemia) [µM] | GI50 (PC-3 prostate) [µM] | TGI (PC-3 prostate) [µM] | GI50 (SW-620 colon) [µM] | TGI (SW-620 colon) [µM] | GI50 (SK-MEL-28 melanoma) [µM] | TGI (SK-MEL-28 melanoma) [µM] | GI50 (MOLT-4 leukemia) [µM] | TGI (MOLT-4 leukemia) [µM] | GI50 (SF-539 CNS) [µM] | TGI (SF-539 CNS) [µM] |
| --- | --- | --- | --- | --- | --- | --- | --- | --- | --- | --- | --- | --- | --- | --- | --- | --- | --- | --- | --- | --- |
| CCC(Sc1nnc2c3ccccc3n(CC)c2n1)C(=O)Nc1ccccc1OC (stereo not drawn) | > 100 | > 100 | 3.99 | > 71.9 | > 100 | > 100 | > 94.9 | > 100 | 3.02 | 6.91 | 59.3 | > 100 | > 100 | > 100 | > 100 | > 100 | 35 | > 100 | > 100 | > 100 |
| CN1CCN(c2ccc3c4c(cccc24)C(=O)N(CCN2CCN(CCCN4CCN(CCN5C(=O)c6cccc7c(N8CCN(C)CC8)ccc(c67)C5=O)CC4)CC2)C3=O)CC1 | 5.54 | 33.5 | 1.49 | 6.82 | 4.56 | 11.6 |  |  | 1.49 | 7.15 | 5.14 | 11.6 | 1.59 | 50 | 9.37 | 17.1 |  |  | 7.67 | 16.9 |
| Cn1c(=O)cc2c3c(c(NCCCO)ccc31)C(=O)c1ccccc1-2 | 2.31 | > 100 | 19.2 | > 100 | 1.44 | 20.7 | 3.29 | > 100 | 2.98 | > 100 | 3 | > 100 | 0.875 | > 100 | 38 | > 100 | 2.07 | > 100 | 8.8 | > 100 |
| COc1cnc2c(c1)C(=O)c1c-2n(CCCn2ccnc2)c(=O)c2cc(Cl)ccc12 | < 0.01 | 0.271 | 0.0211 | 0.0879 | 0.0198 | 0.116 | < 0.01 | > 100 |  |  | 0.0667 | > 100 | 0.0262 | > 100 | 0.611 | > 100 |  |  | 0.0388 | 0.321 |
| CCC[C@H](N[C@@H]1CCc2cc(F)cc(F)c2C1)C(=O)Nc1cn(C(C)(C)CNCC(C)(C)C)cn1 | 19.5 | 53.8 | 20.8 | 75.1 | 15.5 | 30.6 | 14.7 | > 63.6 | 16.3 | 43.4 | 7.63 | 79.2 | 25 | > 100 | 15.1 | 33.9 | 8.03 | > 68.1 | 16.7 | 34.6 |
| O=[N+]([O-])c1ccccc1N=Nc1c(O)[nH]c2ccccc12 |  | > 96.6 |  | > 48 |  | > 53 |  | > 100 |  | > 100 |  | > 100 |  | > 100 |  | > 100 |  | > 100 |  | 23.9 |
| CC(C)=CCc1c(O)cc(/C=C/c2cc(O)c3c(c2)C[C@@H]2C(C)(C)[C@H](O)[C@H](O)C[C@@]2(C)O3)cc1O | 0.00146 | > 4.36 | 1.38 | > 7.95 | 0.0021 | 3.02 | < 0.001 | 2 | < 0.001 | 3.05 | 0.345 | > 10 | 0.11 | 1.88 | 1.58 | > 5.26 | < 0.001 | 0.0148 | 0.00532 | 2.2 |
| CO[C@@H]1[C@@H](OC2OC(C)C(OC3CC(C)(O)C(OC(=O)CC(C)C)C(C)O3)C(N(C)C)C2O)[C@@H](CC=O)C[C@@H](C)C(=O)/C=C/C2O[C@H]2C[C@@H](C)OC(=O)C[C@H]1OC(C)=O (stereo partly drawn) |  | 41.8 |  | 37.8 |  | 30.4 |  | 34.3 |  | 25 |  | 38.4 |  | 35.8 |  | 34.8 |  | 27.7 |  | 38.5 |
| CCc1c2c(nc3cc4c(cc13)OCO4)-c1cc3c(c(=O)n1C2)COC(=O)[C@@]3(CC)OC(=O)CN | < 0.01 | < 0.01 | < 0.01 | < 0.01 | < 0.01 | 0.0902 | < 0.01 | < 0.01 | < 0.01 | < 0.01 | < 0.01 | > 35.5 | < 0.013 |  | 0.101 |  | < 0.01 | < 0.01 | < 0.01 | < 0.01 |
| N#Cc1ccccc1C#C/C=C\C#Cc1ccc(OCCCNC(=O)c2cc3ccccc3[nH]2)cc1 | 33.9 | > 100 | 14.9 | 31.1 | 11.5 | 23.7 | 4.6 | 44.3 |  |  | 14.7 | 45.2 | 30.2 | > 100 | 32 | > 100 | 5.23 | 23.4 | 15.4 | 35.6 |
| CC(=O)O[C@@H]1CO[C@H]2O[C@H]3[C@@H](C(C=O)=C[C@H](O)[C@@H]4C5=C(C(C)C)CC[C@]5(C)CC[C@@]34C)[C@@]2(O)C1=O |  | 0.699 |  | 1.82 |  | 0.687 |  | 0.418 |  |  |  | 0.368 |  | 0.213 |  | 0.771 |  | 0.28 |  | 0.37 |
| O=Cc1ccc(-c2ccc(-c3ccc(C=O)s3)o2)s1 |  | > 100 |  | > 100 |  | > 100 |  | > 100 |  | > 100 |  | > 100 |  | > 100 |  | > 100 |  | > 100 |  | > 100 |
| CN1C(=O)CNC(=O)[C@H](NC(=O)c2nc3ccccc3cc2O)CSSC[C@H]1C(=O)NCCc1nc2ccccc2cc1O | 1.15 | > 35.2 | 17.6 | 53.4 | 0.442 | 6.77 | 3.25 | > 52.7 | 1.22 | 5.1 | 18.9 | > 70.4 | 5.65 | 35.3 | 8.07 | 35 | 1.4 | 14.8 | 15.2 | 39.1 |
| O=C(Nc1cc(C(F)(F)F)ccc1F)Nc1n[nH]c2ccccc12 | > 100 | > 100 | > 100 | > 100 | > 100 | > 100 |  |  | > 100 | > 100 | > 100 | > 100 | > 100 | > 100 | > 100 | > 100 | > 100 | > 100 | > 100 | > 100 |
| O=C(Nc1ccc(Br)cc1)Nc1n[nH]c2ccccc12 | 11.7 | > 100 | > 100 | > 100 | > 100 | > 100 | 6.8 | > 100 | 18.7 | > 90 | > 82.7 | > 100 | > 100 | > 100 | > 100 | > 100 | 8.98 | > 100 | > 70.9 | > 100 |
| CN1CCN(c2ccc3nc(-c4cc(C(C)(C)C)c(O)c(C(C)(C)C)c4)[nH]c3c2)CC1 | 1.99 | 3.7 | 2.29 | 5 | 1.83 | 3.41 | 2.22 | 5.83 | 2.22 | 4.52 | 1.92 | 4.17 | 2.33 | 4.06 | 1.91 | 3.4 | 2.2 | 5.55 | 1.79 | 3.35 |
| Nc1cc(-c2ccccc2)ccc1O | > 100 | > 100 | > 100 | > 100 | 62.9 | > 100 | 23.2 | > 100 | 45.4 | > 100 | 21.6 | > 100 | > 100 | > 100 | > 100 | > 100 | 51.9 | > 100 | > 100 | > 100 |
| CC(=O)OC1CC2CCC1(C)C2(C)C (stereo not drawn) |  | > 100 |  | > 100 |  | > 100 |  | > 100 |  | > 100 |  | > 100 |  | > 100 |  | > 100 |  | > 100 |  | > 100 |
| CC(=O)OC1COC(S[As](C)C)C(OC(C)=O)C1OC(C)=O (stereo not drawn) | 1.05 | 14.5 | 2.29 | 14.9 | 0.223 | 0.691 | 0.0444 | 0.152 | < 0.0158 | 0.072 | 0.164 | 2.04 | 0.341 | 1.69 | 0.666 | 8.89 | 0.0152 | 0.0672 | 0.0713 | 0.315 |
| CS(=O)(=O)CCNCc1ccc(-c2ccc3ncnc(Nc4ccc(OCc5cccc(C(F)(F)F)c5)cc4)c3c2)o1 | 5.31 | 11.8 | 6.53 | 16.6 | 4.53 | 9.32 | 6.14 | > 25 | 4.96 | 10.9 | 5.63 | 19.9 | 5.2 | 10.1 | 4.29 | 8.23 | 4.87 | > 20.9 | 4.66 | 9.75 |
| COc1cc(CSc2nc3ccc(C)cc3c(=O)n2Cc2ccccc2)cc(OC)c1OC | 2.26 | > 100 | 3.21 | 21.4 | 4.66 | > 100 | 2.37 | > 100 | 3.3 | > 100 | 2.66 | > 100 | 1.56 | > 100 | 2.99 | 96.8 | 4.57 | > 100 | 2.26 | 8.32 |
| C=CC1CC12C(=O)C1OC2(C)C2C(=O)c3c(ccc4c3ccc3ccccc34)C(=O)C12 (stereo not drawn) | 37.1 | > 100 | > 100 | > 100 |  |  | 17.1 | > 100 | 31 | > 100 | 35.6 | > 100 |  |  | 65.3 | > 100 | 30.8 | > 100 | 47.2 | > 100 |
| COc1ccc2[nH]cc(-c3nc(-c4cn(C)c5ccncc45)cs3)c2c1 | 1.97 | 3.67 | 1.92 | 3.63 |  |  | 2.33 | 6.25 | 1.9 | 4.12 | 1.98 | 4.13 | 1.95 | 3.81 | 1.79 | 3.22 |  |  | 1.9 | 3.37 |
| [Cu+2].[O-]c1ccc2ccccc2c1N=Nc1ccccc1.[O-]c1ccc2ccccc2c1N=Nc1ccccc1 |  | > 100 |  | > 100 |  |  |  | > 100 |  | > 100 |  | > 100 |  | > 100 |  | > 100 |  | > 100 |  | > 100 |
| O=C(COc1cccc(/C=C2\COc3ccccc3C2=O)c1)Nc1nccs1 | 6.92 | 31.6 | 4.11 | 15.9 | 1.82 | 3.4 | 1.63 | 4.91 | 1.59 | 3.44 | 1.37 | 3.46 | 1.97 | 3.98 | 2.42 | 5.44 |  |  | 14.7 | 31.2 |
| COc1ccc2c(c1)c(C1(c3cn(C)c4ccc(OC)cc34)C(=O)Nc3ccc(F)cc31)cn2C | 3.65 | 14.6 | 7.62 | > 100 | 4.45 | > 100 | 4.56 | > 100 |  |  | 3.88 | > 100 | 7.48 | > 100 | 5.3 | 25.5 | 4.57 | 50.1 | 15.6 | 85.2 |
| CC(=O)/C=C/C1=C(c2cc3ccccc3s2)c2ccccc2CC1 |  |  | 36.5 | > 100 | 20.3 | 67.3 |  |  | 16.4 | 98.2 | 18.4 | > 100 | 32.6 | > 100 | 20.9 | 54.1 | 13.6 | > 100 | 27.2 | 64.7 |
